In ChEMBL document CHEMBL3227967, “Quantitative structure-activity relationships in 1-aryl-2-(alkylamino)ethanol antimalarials” (J Med Chem, 1979):

These molecules were tested on Plasmodium berghei (assay: Antimalarial activity against Plasmodium berghei).
Format: functional

Row | Structure (SMILES) | log(1/C)
1 | Cc1cc(C)c2nc(Oc3ccc(Cl)cc3)cc(C(O)CC3CCCCN3)c2c1 (centres undefined) | 2.72
2 | CCCCCCCN(CCCCCCC)CC(O)c1ccc2ccc3cccc(C(F)(F)F)c3c2c1 (centres undefined) | 2.58
3 | OC(CCC1CCCCN1)c1cc2ccc(C(F)(F)F)cc2c2cc(C(F)(F)F)ccc12 (centres undefined) | 4.11
4 | OC(CC1CCCCN1)c1cc2cc(Cl)ccc2c2c(C(F)(F)F)cccc12 (centres undefined) | 4.05
5 | CCCCCCN(CCCCCC)CC(O)c1cc(-c2ccc(Cl)cc2)nc2c(Cl)cccc12 (centres undefined) | 3.32
6 | CCCN(CCC)CC(O)c1cc2cc(Br)cc(Br)c2c2cc(C(F)(F)F)ccc12 (centres undefined) | 4.24
7 | OC(CNC12CC3CC(CC(C3)C1)C2)c1cc(-c2ccc(Cl)cc2)nc(-c2ccc(Cl)cc2)c1 (centres undefined) | 3.23
8 | OC(CC1CCCCN1)c1cc(-c2ccc(C(F)(F)F)cc2)nc(C(F)(F)F)c1 (centres undefined) | 4.32
9 | CCN(CC)CC(O)c1cc(Cl)cc2ccc(-c3ccc(Cl)cc3)nc12 (centres undefined) | 2.12
10 | CCCCN(CCCC)CC(O)c1cc2cccc(Br)c2c2cc(C(F)(F)F)ccc12 (centres undefined) | 3.52
11 | CCCCN(CCCC)CC(O)c1cc(-c2ccc(Cl)cc2Cl)nc2c(Cl)cc(Cl)cc12 (centres undefined) | 3.66
12 | OC(CC1CCCCN1)c1cc2cc(Br)ccc2c2ccccc12 (centres undefined) | 3.25
13 | CCN(CC)CC(O)c1cc(-c2ccc(Cl)cc2)cc2ccccc12 (centres undefined) | 3.51
14 | CCCCN(CCCC)CC(O)c1cc(-c2ccc(Cl)cc2)nc2c(C(F)(F)F)cc(OC)cc12 (centres undefined) | 3.93
15 | CCCCN(CCCC)CC(O)c1cc(/C=C/c2ccc(Cl)cc2)cc(C(F)(F)F)c1 (centres undefined) | 4.37
16 | OC(CC1CCCCN1)c1cc(-c2ccccc2)nc2ccccc12 (centres undefined) | 2.37
17 | CCCCCCCN(CCCCCCC)CC(O)c1c(Br)c2ccccc2c2cc(Br)ccc12 (centres undefined) | 3.42
18 | Cc1c(Cl)ccc2c(C(O)CN(CCC(C)C)CCC(C)C)cc(-c3ccc(Cl)cc3)nc12 (centres undefined) | 3.09
19 | OC(CC1CCCCN1)c1cc(-c2ccccc2)nc2c(Cl)cc(Cl)cc12 (centres undefined) | 3.9
20 | CCCCCCCN(CCCCCCC)CCC(O)c1cc2ccc(C(F)(F)F)cc2c2cc(C(F)(F)F)ccc12 (centres undefined) | 3.2
21 | CCCCN(CCCC)CC(O)C1CC(c2ccc(Cl)c(Cl)c2)=Nc2c(Cl)cc(Cl)cc21 (centres undefined) | 3.6
22 | CCCCN(CCCC)CC(O)c1cc2ccc(C(C)(C)C)cc2c2cc(C(C)(C)C)ccc12 (centres undefined) | 3.19
23 | CCCCN(CCCC)CC(O)c1cc(Cl)cc2ccc(-c3ccc(Cl)cc3)nc12 (centres undefined) | 2.9
24 | OC(CC1CCCCN1)c1cc2ccccc2c2ccccc12 (centres undefined) | 2.53
25 | OC(CCC1CCCCN1)c1cc(C(F)(F)F)nc2c(C(F)(F)F)cccc12 (centres undefined) | 3.36

Row | Structure (SMILES) | log(1/C)
26 | OC(CC1CCCCN1)c1cc2c(Cl)c(Cl)c(Cl)c(Cl)c2c2cc(C(F)(F)F)ccc12 (centres undefined) | 4.75
27 | CCCCNCC(O)c1cc2ccc(C(F)(F)F)cc2c2ccsc12 (centres undefined) | 2.51
28 | CCCCN(CCCC)CC(O)c1c(C)c(-c2ccc(Cl)cc2Cl)nc2c(Cl)cc(Cl)cc12 (centres undefined) | 3.15
29 | OC(CC1CCCCN1)c1cc(-c2ccc(Cl)cc2)nc(-c2ccc(Cl)cc2)c1 (centres undefined) | 3.83
30 | CCCCN(CCCC)CC(O)c1cc(C(C)(C)C)nc2ccc(Cl)cc12 (centres undefined) | 2.91
31 | CCCCN(CCCC)CC(O)c1cc2cc(Cl)c(Cl)cc2c2c(Cl)c(Cl)ccc12 (centres undefined) | 4.18
32 | OC(CC1CCCCN1)c1cc2cc(Br)c(Br)cc2c2cc(C(F)(F)F)ccc12 (centres undefined) | 3.58
33 | CCCCCCN(CCCCCC)CC(O)c1cccc2c1cc(Cl)c1ccccc12 (centres undefined) | 2.39
34 | CC(C)(C)NCC(O)c1cc2ccc(Br)cc2c2cc(Br)ccc12 (centres undefined) | 3.61
35 | CCCCCCCN(CCCCCCC)CC(O)c1c(OC)c2cc(Br)ccc2c2ccc(Br)cc12 (centres undefined) | 3.35
36 | CCCCN(CCCC)CC(O)c1cc2cc(Cl)ccc2c2c(Cl)cc(Cl)cc12 (centres undefined) | 3.91
37 | CCN(CC)CC(O)c1cc(-c2ccc(C)cc2)nc2c(C)cc(C)cc12 (centres undefined) | 2.8
38 | CCCCN(CCCC)CC(O)c1cc2c(Cl)cc(Cl)cc2c2sccc12 (centres undefined) | 3.28
39 | CCCCCCN(CCCCCC)CC(O)c1cc(-c2ccc(Cl)c(Cl)c2)nc2cc(C(F)(F)F)ccc12 (centres undefined) | 3.68
40 | OC(CC1CCCCN1)c1cc(Nc2ccc(Cl)cc2)nc2ccccc12 (centres undefined) | 2.52
41 | CCCCN(CCCC)CC(O)c1cc(-c2ccc(OC)cc2)nc2cc(OC)c(Cl)cc12 (centres undefined) | 2.71
42 | CCCCCCN(CCCCCC)CC(O)c1cc2ccccc2c2ccccc12 (centres undefined) | 2.4
43 | Cc1ccc2cc(C(O)CC3CCCCN3)c3ccc(C(F)(F)F)cc3c2c1 (centres undefined) | 3.16
44 | CCN(CC)CCC(O)c1cc2ccc(C(F)(F)F)cc2c2cc(C(F)(F)F)ccc12 (centres undefined) | 4.12
45 | CCCCN(CCCC)CC(O)c1cc2cc(Cl)ccc2c2ccccc12 (centres undefined) | 3.01
46 | CCCCNC(C)(C)CC(O)c1cc(C(F)(F)F)nc2c(C(F)(F)F)cccc12 (centres undefined) | 3.27
47 | CCCCN(CCCC)CC(O)c1cc2cc(Cl)c(Cl)cc2c2cc(Cl)c(Cl)cc12 (centres undefined) | 4.18
48 | CCCCN(CCCC)CC(O)c1cc(-c2ccccc2)nc(-c2ccccc2)c1 (centres undefined) | 2.51
49 | CCCN(CCC)CC(O)c1cc2cc(Cl)ccc2c2cc(Cl)ccc12 (centres undefined) | 4.06
50 | CCCCN(CCCC)CC(O)c1cccc2ccc3cccc(Cl)c3c12 (centres undefined) | 2.3

Row | Structure (SMILES) | log(1/C)
51 | CCCCCCCCN(CCCCCCCC)CC(O)c1cc(-c2ccc(OC)c(OC)c2)nc2ccc(Cl)cc12 (centres undefined) | 3.11
52 | CCCCNCCC(O)c1c2ccccc2c(Cl)c2ccccc12 (centres undefined) | 2.49
53 | CCCCCCCN(CCCCCCC)CC(O)c1cc(-c2ccc(F)cc2)nc(-c2ccc(F)cc2)c1 (centres undefined) | 2.55
54 | CCCCCCCCN(CCCCCCCC)CC(O)c1ccnc2ccccc12 (centres undefined) | 2.44
55 | CCCCCCCN(CCCCCCC)CC(O)c1cc(-c2ccc(Cl)cc2)cc2ccccc12 (centres undefined) | 3.35
56 | CCCCN(CCCC)CC(O)c1cc(C(=O)c2ccccc2)nc2c(Cl)cc(Cl)cc12 (centres undefined) | 3.03
57 | CCCCCCCCN(CCCCCCCC)CC(O)c1cc(-c2ccc(CC)c(CC)c2)cc2ccc(C)cc12 (centres undefined) | 3.15
58 | CCCCN(CCCC)CC(O)c1cc2ccc(Cl)cc2c2cc(C(F)(F)F)ccc12 (centres undefined) | 3.65
59 | CCCCN(CCCC)CC(O)c1cc(C(=O)c2ccc(C(F)(F)F)cc2)nc2c(Cl)cc(Cl)cc12 (centres undefined) | 4.86
60 | CCCCCCCN(CCCCCCC)CC(O)c1cc2sccc2c2ccsc12 (centres undefined) | 2.58
61 | CN1CCCCC1CC(O)c1cc(-c2ccccc2)nc2ccc(Cl)cc12 (centres undefined) | 2.7
62 | CCCCCCCN(CCCCCCC)CC(O)c1cc2ccccc2c2ccc3ccccc3c12 (centres undefined) | 3.25
63 | CCCCN(CCCC)CC(O)c1cc2cc(Br)ccc2c2cc(S(C)(=O)=O)ccc12 (centres undefined) | 3.43
64 | CCCCN(CCCC)CC(O)c1cc2sccc2c2cc(Cl)sc12 (centres undefined) | 3.36
65 | CCCCN(CCCC)CC(O)c1cc(C(C)(C)C)nc2ccc(C)cc12 (centres undefined) | 2.53
66 | CCCCCNCC(O)c1cc(-c2ccc(C(F)(F)F)cc2)nc(-c2ccc(C(F)(F)F)cc2)c1 (centres undefined) | 4.17
67 | CCCCN(CCCC)CC(O)c1cc2ccsc2c2cc(C(F)(F)F)ccc12 (centres undefined) | 3.5
68 | CCCCN(CCCC)CC(O)c1cc(Oc2ccc(Cl)cc2)c(Br)c2cc(Cl)ccc12 (centres undefined) | 2.62
69 | CCCCN(CCCC)CC(O)c1cc(C(=O)c2cc(Cl)cc(Cl)c2)nc2c(C(F)(F)F)cc(Cl)cc12 (centres undefined) | 4.82
70 | OC(CC1CCCCN1)c1cc(C(F)(F)F)nc2c(F)cccc12 (centres undefined) | 2.36
71 | C=C[C@H]1CN2CC[C@H]1C[C@H]2[C@H](O)c1ccnc2ccc(OC)cc12 [QUININE] | 2.06
72 | CCCCN(CCCC)CC(O)c1cccc2cc3cc(Cl)c(Cl)cc3cc12 (centres undefined) | 2.48
73 | OC(CC1CCCCN1)c1cc2cc(Cl)ccc2c2cc(C(F)(F)F)ccc12 (centres undefined) | 4.07
74 | CCCCN(CCCC)CC(O)c1cc(-c2ccc(Cl)cc2)nc2ccccc12 (centres undefined) | 2.73
75 | OC(CNCc1ccccc1)c1cc(-c2ccc(Cl)c(Cl)c2)nc2c(Cl)cc(Cl)cc12 (centres undefined) | 3.66

Row | Structure (SMILES) | log(1/C)
76 | CCCCN(CCCC)CC(O)c1cc2ccc(Br)cc2c2cc(Br)ccc12 (centres undefined) | 3.63
77 | CCCCN(CCCC)CC(O)c1cc(C23CC4CC(CC(C4)C2)C3)nc2ccc(Cl)cc12 (centres undefined) | 3.05
78 | CCCCCCCCCN(CCCCCCCCC)CC(O)c1c2ccccc2cc2ccccc12 (centres undefined) | 3.24
79 | CCCCCCCN(CCCCCCC)CC(O)c1cccc2cc3cccc(Cl)c3cc12 (centres undefined) | 2.36
80 | OC(CC1CCCCN1)c1c2c(nc3c(Cl)cc(Cl)cc13)-c1ccc(Cl)cc1CC2 (centres undefined) | 3.69
81 | CCCCN(CCCC)CC(O)c1cc(-c2cccc(I)c2)nc2c(Cl)cc(Cl)cc12 (centres undefined) | 3.16
82 | CCCCN(CCCC)CC(O)c1cc2cc(Br)c(Br)cc2c2cc(Br)ccc12 (centres undefined) | 3.97
83 | CCCCCCCN(CCCCCCC)CC(O)c1cc2ccc(C(F)(F)F)cc2c2sccc12 (centres undefined) | 3.36
84 | Cc1cc(C)c2nc(C(F)(F)F)cc(C(O)CC3CCCCN3)c2c1 (centres undefined) | 2.93
85 | CCCCN(CCCC)CC(O)c1cc(-c2ccc(Cl)cc2)nc2cc(Cl)ccc12 (centres undefined) | 3.91
86 | COc1cc2c(C(O)CC3CCCCN3)cc(-c3ccc(Cl)cc3)cc2cc1Cl (centres undefined) | 3
87 | CCCN(CCC)CC(O)c1cc2ccc(C(F)(F)F)cc2c2cc(Cl)c(Cl)cc12 (centres undefined) | 4.3
88 | CCCCN(CCCC)CC(O)c1cc2ccsc2c2ccccc12 (centres undefined) | 2.38
89 | CCCCN(CCCC)CC(O)c1cc(-c2ccc(Cl)cc2)nc2cc(C(F)(F)F)ccc12 (centres undefined) | 4.14
90 | OC(CC1CCCCN1)c1cc2ccc(Br)cc2c2cc(Br)ccc12 (centres undefined) | 3.31
91 | CCC(CC)NCC(O)c1cc(-c2ccc(C(F)(F)F)cc2)nc(C(F)(F)F)c1 (centres undefined) | 3.28
92 | Cc1cccc2c(C(O)CC3CCCCN3)cc(C(F)(F)F)nc12 (centres undefined) | 2.93
93 | CCCCCCCN(CCCCCCC)CC(O)c1cc(Cl)cc2ccc(-c3ccc(Cl)cc3)nc12 (centres undefined) | 2.34
94 | OC(CC1CCCCN1)c1cc2cccc(C(F)(F)F)c2c2ccc(Cl)cc12 (centres undefined) | 3.66
95 | CCCCCCCNCC(O)c1cc(-c2ccc(C(F)(F)F)cc2)nc(-c2ccc(C(F)(F)F)cc2)c1 (centres undefined) | 3.67
96 | CCCCN(CCCC)CC(O)c1cc2ccc(C(F)(F)F)cc2c2sccc12 (centres undefined) | 2.98
97 | CCCCCCCCN(CCCCCCCC)CC(O)c1cc(-c2ccccc2)nc2cc(Cl)ccc12 (centres undefined) | 2.82
98 | OC(CC1CCCCN1)c1cc2c(Br)cc(Br)cc2c2cc(C(F)(F)F)ccc12 (centres undefined) | 4.2
99 | OC(CC1CCCCN1)c1cc(Nc2ccc(Cl)cc2)nc2ccc(Cl)cc12 (centres undefined) | 2.72
